# Columns and labels:
# salivary microorganisms = assay: Laboratory model of impression taking: material set against filters loaded with stimulated human saliva, rinsed, remaining growth on agar; format: cell-based; set-up: key: confluent growth, +++; many colonies, ++; few colonies, +; no growth, −; conditions: Impregum Garant L DuoSoft
# Description: (§1) A laboratory system was worked out that models the clinical procedure of impression taking with concomitant contamination of the material, the removal of the material from the mouth and the subsequent cleaning by a brief rinse under tap water. The remaining contamination was determined by microbiological methods:
# (§2) Impression material was applied into sterile Petri dishes. Filters loaded with Streptococcus mutans (DSM 20523) or stimulated human saliva were contacted with the material during setting. A Strep. mutans concentration of approx. 5E9 CFU/ml was chosen which is similar to the microorganismsl number found salviva. After setting, the material was removed from the contaminated filter and briefly rinsed with sterile water.
# (§3) Remaining microorganisms were transferred to agar plates and the plates were incubated anaerobically at 37° C. to allow for growth of surviving microorganisms. Microorganisms growth was recorded as confluent growth, +++; many colonies, ++; few colonies, +; no growth, −.
# [1] = test system: Streptococcus mutans (DSM 20523); assay: Laboratory model of impression taking: material set against filters loaded with Streptococcus mutans, rinsed, remaining growth on agar; format: cell-based; set-up: key: confluent growth, +++; many colonies, ++; few colonies, +; no growth, −; conditions: Impregum Garant L DuoSoft
# Description: as §1, §2, §3
# [2] = Chlorhexidine 1.5 % in cured paste
# [3] = Chlorhexidine 3.6 % in cured paste
substance,measurement,setting,value
chlorhexidine diacetate hydrate [CHX diacetate hydrate],Growth of salivary microorganisms (initial conc. 5E7 CFU/ml),salivary microorganisms; [2],−
same,Growth of salivary microorganisms (initial conc. 5E7 CFU/ml),salivary microorganisms; [3],−
same,Growth of S. mutans (initial conc. 5E9 CFU/ml),[1]; Chlorhexidine 0.6-0.7 % in cured paste,−
same,Growth of S. mutans (initial conc. 5E9 CFU/ml),[1]; Chlorhexidine 0.8 % in cured paste,−
same,Growth of S. mutans (initial conc. 5E9 CFU/ml),[1]; [2],−
same,Growth of S. mutans (initial conc. 5E9 CFU/ml),[1]; [3],−
same,Growth of S. mutans (initial conc. 5E9 CFU/ml),[1]; Chlorhexidine <0.2 % in cured paste,+++

# — patent publication US8933147B2, “Anti-microbial dental impression material” (3M Innovative Properties Company, priority 2005, dated 2015)
